From ChEMBL document CHEMBL4393734, “Structure-aided optimization of 3-O-β-chacotriosyl ursolic acid as novel H5N1 entry inhibitors with high selective index” (Bioorg Med Chem, 2019)
Activity calls are given as the source filed them. The calls are words filed in the database; no cut-off is given here.

Key:
[1] = Selectivity index, ratio of CC50 for dog MDCK cells to IC50 for influenza A virus A/Duck/Guangdong/99(H5N1); assay type: toxicity; conditions: read-out: Ratio CC50/IC50
Influenza A virus [2] = experiment: Antiviral activity against influenza A virus A/Duck/Guangdong/99(H5N1) infected in MDCK cells assessed as reduction in virus induced cytopathic effect preincubated for 30 mins with virus followed by viral infection and measured after 48 hrs by microscopy analysis; assay type: functional, organism-based
[3] = Cytotoxicity against dog MDCK cells measured after 48 hrs by MTT assay; assay type: cell-based, Canis lupus familiaris
[4] = target: Neuraminidase (Influenza A virus (A/Puerto Rico/8/1934(H1N1))) (UniProt P03468); experiment: Inhibition of Influenza A virus (A/Puerto Rico/8/34(H1N1) neuraminidase N1 using MUNANA as substrate preincubated for 30 mins followed by substrate addition and further incubated for 1 hr in dark by microplate reader based fluorescence assay
[5] = test system: Vesicular stomatitis virus; experiment: Antiviral activity against VSV-G pseudovirus infected in MDCK cells assessed as pseudovirus neutralization preincubated for 30 mins with virus and followed by viral infection and measured after 48 hrs by luciferase assay; assay type: functional, organism-based
[6] = target: Hemagglutinin (Influenza A virus) (UniProt B4URE7); experiment: Inhibition of influenza A virus HA-mediated chicken erythrocytes hemagglutination measured after 1 hr
Influenza A virus [7] = experiment: Antiviral activity against influenza A virus H5N1 pseudovirus with HA (A/Thailand/Kan353/2004(H5N1) - HA/NA (A/Thailand/Kan353/2004(H5N1) -NA/HIV core plasmids infected in MDCK cells assessed as pseudovirus neutralization incubated for 30 mins with virus followed by viral infection and measured after 48 hrs by luciferase assay; assay type: functional, organism-based
[8] = Binding affinity to influenza A virus hemagglutinin 1 by surface plasmon resonance assay
Hemagglutinin = Hemagglutinin (Influenza A virus, UniProt B4URE7); experiment: Binding affinity to influenza A virus hemagglutin by surface plasmon resonance assay
Influenza A virus [9] = experiment: Antiviral activity against influenza A virus A/Duck/Guangdong/99(H5N1) infected in MDCK cells assessed as inhibition of viral replication measured after 48 hr post infection by FITC/DAPI-staining based immunofluorescence microscopy assay; assay type: functional, organism-based

Sequence of Neuraminidase (Influenza A virus (A/Puerto Rico/8/1934(H1N1))) (P03468 whole entry): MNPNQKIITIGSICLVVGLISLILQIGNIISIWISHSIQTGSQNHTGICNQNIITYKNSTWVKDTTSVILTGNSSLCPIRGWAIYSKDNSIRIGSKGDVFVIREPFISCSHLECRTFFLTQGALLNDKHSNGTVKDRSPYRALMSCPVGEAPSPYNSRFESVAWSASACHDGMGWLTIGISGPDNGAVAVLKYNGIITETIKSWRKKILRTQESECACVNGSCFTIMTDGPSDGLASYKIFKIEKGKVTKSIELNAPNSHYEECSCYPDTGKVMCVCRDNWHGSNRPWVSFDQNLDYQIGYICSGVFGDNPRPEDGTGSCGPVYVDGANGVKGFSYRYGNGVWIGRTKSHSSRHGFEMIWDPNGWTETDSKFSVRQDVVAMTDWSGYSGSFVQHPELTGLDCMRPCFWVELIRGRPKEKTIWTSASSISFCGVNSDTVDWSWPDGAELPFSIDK
Sequence of Hemagglutinin (B4URE7 whole entry): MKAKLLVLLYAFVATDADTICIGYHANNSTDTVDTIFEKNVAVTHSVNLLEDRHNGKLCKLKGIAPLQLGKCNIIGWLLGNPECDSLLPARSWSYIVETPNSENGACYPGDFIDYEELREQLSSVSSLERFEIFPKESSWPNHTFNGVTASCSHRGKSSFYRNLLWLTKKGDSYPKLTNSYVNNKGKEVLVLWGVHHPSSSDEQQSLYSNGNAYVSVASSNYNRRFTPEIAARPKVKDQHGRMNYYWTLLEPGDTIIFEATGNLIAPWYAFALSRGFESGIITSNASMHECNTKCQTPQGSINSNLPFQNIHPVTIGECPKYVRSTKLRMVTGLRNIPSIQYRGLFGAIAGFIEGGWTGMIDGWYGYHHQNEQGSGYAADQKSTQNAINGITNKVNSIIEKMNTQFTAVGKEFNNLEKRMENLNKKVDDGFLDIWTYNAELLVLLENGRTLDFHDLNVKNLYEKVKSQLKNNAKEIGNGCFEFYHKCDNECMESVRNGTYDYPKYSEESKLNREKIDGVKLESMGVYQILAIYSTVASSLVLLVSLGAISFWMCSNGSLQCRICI
Sequence of Hemagglutinin (Influenza A virus) (B4URE7 as listed by the source): as the sequence (B4URE7 whole entry) above

| Structure (SMILES) | selectivity ratio [1] | IC50 (Influenza A virus [2]) [µM] | CC50 at 48 h [3] [µM] | other results |
| --- | --- | --- | --- | --- |
| C[C@H]1[C@H](C)CC[C@]2(C(=O)Nc3ccc(OC(F)(F)F)cc3)CC[C@]3(C)C(=CC[C@@H]4[C@@]5(C)CC[C@H](O[C@@H]6O[C@H](CO)[C@@H](O[C@@H]7O[C@@H](C)[C@H](O)[C@@H](O)[C@H]7O)[C@H](O)[C@H]6O[C@@H]6O[C@@H](C)[C@H](O)[C@@H](O)[C@H]6O)C(C)(C)[C@@H]5CC[C@]43C)[C@H]12 | 52.6 | 8.56 | 451 |  |
| C[C@H]1[C@H](C)CC[C@]2(C(=O)N3CCCC3)CC[C@]3(C)C(=CC[C@@H]4[C@@]5(C)CC[C@H](O[C@@H]6O[C@H](CO)[C@@H](O[C@@H]7O[C@@H](C)[C@H](O)[C@@H](O)[C@H]7O)[C@H](O)[C@H]6O[C@@H]6O[C@@H](C)[C@H](O)[C@@H](O)[C@H]6O)C(C)(C)[C@@H]5CC[C@]43C)[C@H]12 | 13 | 3.25 | 42.4 |  |
| CNC(=O)[C@]12CC[C@@H](C)[C@H](C)[C@H]1C1=CC[C@@H]3[C@@]4(C)CC[C@H](O[C@@H]5O[C@H](CO)[C@@H](O[C@@H]6O[C@@H](C)[C@H](O)[C@@H](O)[C@H]6O)[C@H](O)[C@H]5O[C@@H]5O[C@@H](C)[C@H](O)[C@@H](O)[C@H]5O)C(C)(C)[C@@H]4CC[C@@]3(C)[C@]1(C)CC2 | 60.7 | 11.2 | 683 |  |
| COc1ccc(CNC(=O)[C@]23CC[C@@H](C)[C@H](C)[C@H]2C2=CC[C@@H]4[C@@]5(C)CC[C@H](O[C@@H]6O[C@H](CO)[C@@H](O[C@@H]7O[C@@H](C)[C@H](O)[C@@H](O)[C@H]7O)[C@H](O)[C@H]6O[C@@H]6O[C@@H](C)[C@H](O)[C@@H](O)[C@H]6O)C(C)(C)[C@@H]5CC[C@@]4(C)[C@]2(C)CC3)cc1 | 11.5 | 8.72 | 100 |  |
| C[C@H]1[C@H](C)CC[C@]2(C(=O)Nc3ccc(Cl)cc3)CC[C@]3(C)C(=CC[C@@H]4[C@@]5(C)CC[C@H](O[C@@H]6O[C@H](CO)[C@@H](O[C@@H]7O[C@@H](C)[C@H](O)[C@@H](O)[C@H]7O)[C@H](O)[C@H]6O[C@@H]6O[C@@H](C)[C@H](O)[C@@H](O)[C@H]6O)C(C)(C)[C@@H]5CC[C@]43C)[C@H]12 | > 287 | 3.48 | > 1000 | inhibition [4]: inactive |
| C[C@H]1[C@H](C)CC[C@]2(C(=O)NCc3ccccc3)CC[C@]3(C)C(=CC[C@@H]4[C@@]5(C)CC[C@H](O[C@@H]6O[C@H](CO)[C@@H](O[C@@H]7O[C@@H](C)[C@H](O)[C@@H](O)[C@H]7O)[C@H](O)[C@H]6O[C@@H]6O[C@@H](C)[C@H](O)[C@@H](O)[C@H]6O)C(C)(C)[C@@H]5CC[C@]43C)[C@H]12 | 13.2 | 9.35 | 123 |  |
| C[C@H]1[C@H](C)CC[C@]2(C(=O)Nc3ccc(Br)cc3)CC[C@]3(C)C(=CC[C@@H]4[C@@]5(C)CC[C@H](O[C@@H]6O[C@H](CO)[C@@H](O[C@@H]7O[C@@H](C)[C@H](O)[C@@H](O)[C@H]7O)[C@H](O)[C@H]6O[C@@H]6O[C@@H](C)[C@H](O)[C@@H](O)[C@H]6O)C(C)(C)[C@@H]5CC[C@]43C)[C@H]12 |  | > 50 |  |  |
| C[C@H]1[C@H](C)CC[C@]2(C(=O)Nc3cccc(Cl)c3)CC[C@]3(C)C(=CC[C@@H]4[C@@]5(C)CC[C@H](O[C@@H]6O[C@H](CO)[C@@H](O[C@@H]7O[C@@H](C)[C@H](O)[C@@H](O)[C@H]7O)[C@H](O)[C@H]6O[C@@H]6O[C@@H](C)[C@H](O)[C@@H](O)[C@H]6O)C(C)(C)[C@@H]5CC[C@]43C)[C@H]12 | > 136 | 7.35 | > 1000 |  |
| C[C@H]1[C@H](C)CC[C@]2(C(=O)Nc3ccccc3Cl)CC[C@]3(C)C(=CC[C@@H]4[C@@]5(C)CC[C@H](O[C@@H]6O[C@H](CO)[C@@H](O[C@@H]7O[C@@H](C)[C@H](O)[C@@H](O)[C@H]7O)[C@H](O)[C@H]6O[C@@H]6O[C@@H](C)[C@H](O)[C@@H](O)[C@H]6O)C(C)(C)[C@@H]5CC[C@]43C)[C@H]12 | 103 | 2.98 | 306 |  |
| C[C@H]1[C@H](C)CC[C@]2(C(=O)O)CC[C@]3(C)C(=CC[C@@H]4[C@@]5(C)CC[C@H](O[C@@H]6O[C@H](CO)[C@@H](O[C@@H]7O[C@@H](C)[C@H](O)[C@@H](O)[C@H]7O)[C@H](O)[C@H]6O[C@@H]6O[C@@H](C)[C@H](O)[C@@H](O)[C@H]6O)C(C)(C)[C@@H]5CC[C@]43C)[C@H]12 | 1.5 | 16.4 | 25.3 |  |
| COc1ccccc1NC(=O)[C@]12CC[C@@H](C)[C@H](C)[C@H]1C1=CC[C@@H]3[C@@]4(C)CC[C@H](O[C@@H]5O[C@H](CO)[C@@H](O[C@@H]6O[C@@H](C)[C@H](O)[C@@H](O)[C@H]6O)[C@H](O)[C@H]5O[C@@H]5O[C@@H](C)[C@H](O)[C@@H](O)[C@H]5O)C(C)(C)[C@@H]4CC[C@@]3(C)[C@]1(C)CC2 | > 952 | 1.05 | > 1000 | inhibition [5]: inactive; inhibition [6]: Dose-dependent effect; IC50 (Influenza A virus [7]): 1.28 µM; Kd [8]: 0.44 µM; Kd (Hemagglutinin): 0.00122 µM; Activity (Influenza A virus [9]): Dose-dependent effect; inhibition [4]: inactive |
| COc1cccc(NC(=O)[C@]23CC[C@@H](C)[C@H](C)[C@H]2C2=CC[C@@H]4[C@@]5(C)CC[C@H](O[C@@H]6O[C@H](CO)[C@@H](O[C@@H]7O[C@@H](C)[C@H](O)[C@@H](O)[C@H]7O)[C@H](O)[C@H]6O[C@@H]6O[C@@H](C)[C@H](O)[C@@H](O)[C@H]6O)C(C)(C)[C@@H]5CC[C@@]4(C)[C@]2(C)CC3)c1 | > 113 | 5.92 | > 1000 |  |
| C[C@H]1[C@H](C)CC[C@]2(C(=O)NCCN(C)C)CC[C@]3(C)C(=CC[C@@H]4[C@@]5(C)CC[C@H](O[C@@H]6O[C@H](CO)[C@@H](O[C@@H]7O[C@@H](C)[C@H](O)[C@@H](O)[C@H]7O)[C@H](O)[C@H]6O[C@@H]6O[C@@H](C)[C@H](O)[C@@H](O)[C@H]6O)C(C)(C)[C@@H]5CC[C@]43C)[C@H]12 |  | > 50 |  |  |
| COc1ccc(NC(=O)[C@]23CC[C@@H](C)[C@H](C)[C@H]2C2=CC[C@@H]4[C@@]5(C)CC[C@H](O[C@@H]6O[C@H](CO)[C@@H](O[C@@H]7O[C@@H](C)[C@H](O)[C@@H](O)[C@H]7O)[C@H](O)[C@H]6O[C@@H]6O[C@@H](C)[C@H](O)[C@@H](O)[C@H]6O)C(C)(C)[C@@H]5CC[C@@]4(C)[C@]2(C)CC3)cc1 | > 472 | 2.12 | > 1000 | inhibition [4]: inactive |
| C[C@H]1[C@H](C)CC[C@]2(C(=O)Nc3ccc(F)cc3)CC[C@]3(C)C(=CC[C@@H]4[C@@]5(C)CC[C@H](O[C@@H]6O[C@H](CO)[C@@H](O[C@@H]7O[C@@H](C)[C@H](O)[C@@H](O)[C@H]7O)[C@H](O)[C@H]6O[C@@H]6O[C@@H](C)[C@H](O)[C@@H](O)[C@H]6O)C(C)(C)[C@@H]5CC[C@]43C)[C@H]12 | > 189 | 5.28 | > 1000 |  |
| C[C@H]1[C@H](C)CC[C@]2(C(=O)Nc3ccccc3)CC[C@]3(C)C(=CC[C@@H]4[C@@]5(C)CC[C@H](O[C@@H]6O[C@H](CO)[C@@H](O[C@@H]7O[C@@H](C)[C@H](O)[C@@H](O)[C@H]7O)[C@H](O)[C@H]6O[C@@H]6O[C@@H](C)[C@H](O)[C@@H](O)[C@H]6O)C(C)(C)[C@@H]5CC[C@]43C)[C@H]12 | > 171 | 5.85 | > 1000 |  |
